# Assay results as given in patent publication US6362191B1, “Aminometyl oxooxazolidinyl benzene derivatives” (Zeneca Ltd., priority 1997, dated 2002).
# What was measured:
# Bacillus subtilis = assay: MIC by agar-dilution, in-vitro antibacterial test; assay type: cell-based; details: 10^4 CFU/spot
# Excerpt: (§1) The following results were obtained on a standard in-vitro test system. The activity is described in terms of the minimum inhibitory concentration (MIC) determined by the agar-dilution technique with an inoculum size of 10^4 CFU/spot.
# [1] = test system: Streptococcus pyogenes C203; assay: MIC by agar-dilution, in-vitro antibacterial test; assay type: cell-based; details: agar with 5% defibrinated horse blood, 10^4 CFU/spot, 37° C., 5% carbon dioxide, 48 hours
# Method: (§2) The following results were obtained on a standard in-vitro test system. The activity is described in terms of the minimum inhibitory concentration (MIC) determined by the agar-dilution technique with an inoculum size of 10^4 CFU/spot. Streptococci and enterococci were tested on agar supplemented with 5% defibrinated horse blood, an inoculum of 10^4 CFU/spot and an incubation temperature of 37° C. in an atmosphere of 5% carbon dioxide for 48 hours—blood is required for the growth of some of the test organisms.
# Enterococcus faecalis = assay: MIC by agar-dilution, in-vitro antibacterial test; assay type: cell-based; details: agar with 5% defibrinated horse blood, 10^4 CFU/spot, 37° C., 5% carbon dioxide, 48 hours
# Method: as §2
# [2] = test system: Staphylococcus aureus Novb. Res. (Novobiocin resistant); assay: MIC by agar-dilution, in-vitro antibacterial test; assay type: cell-based; details: type Novb. Res. (Novobiocin resistant), 10^4 CFU/spot, 37° C., 24 hours
# Method: as §1
# (§3) Staphylococci were tested on agar, using an inoculum of 10^4 CFU/spot and an incubation temperature of 37° C. for 24 hours—standard test conditions for the expression of methicillin resistance.
# [3] = test system: Staphylococcus aureus MRQR (methicillin resistant quinoione resistant); assay: MIC by agar-dilution, in-vitro antibacterial test; assay type: cell-based; details: type MRQR, 10^4 CFU/spot, 37° C., 24 hours
# Method: as §1, §3
# [4] = test system: Staphylococcus aureus Oxford; assay: MIC by agar-dilution, in-vitro antibacterial test; assay type: cell-based; details: type Oxford, 10^4 CFU/spot, 37° C., 24 hours
# Method: as §1, §3
# [5] = test system: Coagulase Negative Staphylococci MS (methicillin sensitive); assay: MIC by agar-dilution, in-vitro antibacterial test; assay type: cell-based; details: type MS (methicillin sensitive), 10^4 CFU/spot, 37° C., 24 hours
# Method: as §1, §3
# [6] = test system: Coagulase Negative Staphylococci MR (methicillin resistant); assay: MIC by agar-dilution, in-vitro antibacterial test; assay type: cell-based; details: type MR (methicillin resistant), 10^4 CFU/spot, 37° C., 24 hours
# Method: as §1, §3
melting point,Structure (SMILES),further results
257 to 260 °C,"CC(=O)NC[C@H]1CN(c2ccc(C(=O)c3cnc4ncccn34)cc2)C(=O)O1 [Example 6, N-([(5S)-N-(4-[imidazo[1,2-a]pyrimidin-3-ylcarbonyl]phenyl)-2-oxooxazolidin-5-yl]methyl)acetamide]",–
254 to 256 °C,"CC(=O)NC[C@H]1CN(c2ccc(C(=O)c3cnc4cnccn34)cc2)C(=O)O1 [Example 45, N-([(5S)-N-(4-[imidazo[1,2-a]pyrazin-3-ylcarbonyl]phenyl)-2-oxooxazolidin-5-yl]methyl)acetamide]",–
223 to 225 °C,"CC(=O)NC[C@H]1CN(c2ccc(C(=O)c3cnc4ccc([N+](=O)[O-])cn34)cc2)C(=O)O1 [Example 15, N-([(5S)-N-(4-[6-nitroimidazo[1,2-a]pyridin-3-ylcarbonyl]phenyl)-2-oxooxazolidin-5-yl]methyl)acetamide]",–
218 to 220 °C,"CC(=O)NC[C@H]1CN(c2ccc(C(=O)c3cnc4ccccn34)cc2)C(=O)O1 [Example 5, N-([(5S)-N-(4-[imidazo[1,2-a]pyridin-3-ylcarbonyl]phenyl)-2-oxooxazolidin-5-yl]methyl)acetamide]",–
229 to 230 °C,"CC(=O)NC[C@H]1CN(c2ccc(C(=O)c3cnc4c([N+](=O)[O-])cccn34)cc2)C(=O)O1 [Example 16, N-([(5S)-N-(4-[8-nitroimidazo[1,2-a]pyridin-3-ylcarbonyl]phenyl)-2-oxooxazolidin-5-yl]methyl)acetamide]",–
254 to 256 °C,"CC(=O)NC[C@H]1CN(c2ccc(C(=O)c3cnc4cc(C)ccn34)cc2)C(=O)O1 [Example 13, N-([(5S)-N-(4-[7-methylimidazo[1,2-a]pyridin-3-ylcarbonyl]phenyl)-2-oxooxazolidin-5-yl]methyl)acetamide]",–
255 to 257 °C,"CC(=O)NC[C@H]1CN(c2ccc(C(=O)c3cc(C#N)c4ccccn34)cc2)C(=O)O1 [Example 12, N-([(5S)-N-(4-[1-cyanoindolizin-3-ylcarbonyl]phenyl)-2oxooxazolidin-5-yl]methyl)acetamide]",–
230 to 232 °C,"CC(=O)NC[C@H]1CN(c2ccc(C(=O)c3cnc4ccc(Br)cn34)cc2)C(=O)O1 [Example 8, N-([(5S)-N-(4-[6-bromoimidazo[1,2-a]pyridin-3-ylcarbonyl]phenyl)-2-oxooxazolidin-5-yl]methyl)acetamide]",–
253 to 255 °C (dec.),"CC(=O)NC[C@H]1CN(c2ccc(C(=O)c3cnc4c(O)cccn34)cc2)C(=O)O1 [Example 26, N-([(5S)-N-(4-[8-hydroxyimidazo[1,2-a]pyridin-3-ylcarbonyl]phenyl)-2-oxooxazolidin-5-yl]methyl)acetamide]",–
256 to 258 °C,"CC(=O)NC[C@H]1CN(c2ccc(C(=O)c3cnc4cc(-c5ccccc5)ccn34)cc2)C(=O)O1 [Example 25, N-([(5S)-N-(4-[7-phenylimidazo[1,2-a]pyridin-3-ylcarbonyl]phenyl)-2-oxooxazolidin-5-yl]methyl)acetamide]",–
224 to 226 °C,"CC(=O)NC[C@H]1CN(c2ccc(C(=O)c3cnc4ccc(F)cn34)cc2)C(=O)O1 [Example 27, N-([(5S)-N-(4-[6-fluoroimidazo[1,2-a]pyridin-3-ylcarbonyl]phenyl)-2-oxooxazolidin-5-yl]methyl)acetamide]",–
234 to 235 °C,"CC(=O)NC[C@H]1CN(c2ccc(C(=O)c3cnc4ccc(Cl)cn34)cc2)C(=O)O1 [Example 14, N-([(5S)-N-(4-[6-chloroimidazo[1,2-a]pyridin-3-ylcarbonyl]phenyl)-2-oxooxazolidin-5-yl]methyl)acetamide]",–
196 to 198 °C,"CC(=O)NC[C@H]1CN(c2ccc(C(=O)c3cnc4ccccn34)c(F)c2)C(=O)O1 [Example 22, N-([(5S)-N-(4[imidazo[1,2-a]pyridin-3-ylcarbonyl]{3-fluorophenyl})-2-oxooxazolidin-5-yl]methyl)acetamide]",–

# Further lines, the compound ahead of its results:
Structure (SMILES),melting point,further results
"CC(=O)NC[C@H]1CN(c2ccc(C(=O)c3cnc4c(Cl)cc(Cl)cn34)cc2)C(=O)O1 [Example 11, N-([(5S)-N-(4-[6,8-dichloroimidazo[1,2-a]pyridin-3-ylcarbonyl]phenyl)-2-oxooxazolidin-5-yl]methyl)acetamide]",228 to 229 °C,–
"CC(=O)NC[C@H]1CN(c2ccc(C(=O)c3cnc4c5ccccc5ccn34)cc2)C(=O)O1 [Example 9, N-([(5S)-N-(4-[imidazo[2,1-a]isoquinol-3-ylcarbonyl]phenyl)-2-oxooxazolidin-5-yl]methyl)acetamide]",239 to 240 °C,–
"CC(=O)NC[C@H]1CN(c2ccc(C(=O)c3ccc4cnc(C)cn34)cc2)C(=O)O1 [Example 4, N-([(5S)-N-(4-[3-methylpyrrolo[1,2-a]pyrazin-6-ylcarbonyl]phenyl)-2-oxooxazolidin-5-yl]methyl)acetamide]",248 to 250 °C,–
"COC(=O)c1cccn2c(C(=O)c3ccc(N4C[C@H](CNC(C)=O)OC4=O)cc3)cnc12 [Example 23, N-([(5S)-N-(4-[8-methoxycarbonylimidazo[1,2-a]pyridin-3-ylcarbonyl]phenyl)-2-oxooxazolidin-5-yl]methyl)acetamide]",202 to 204 °C,–
"CC(=O)NC[C@H]1CN(c2ccc(C(=O)c3cnc4cnc(Br)cn34)cc2)C(=O)O1 [Example 43, N-([(5S)-N-(4-[6-bromoimidazo[1,2-a]pyrazin-3-ylcarbonyl]phenyl)-2-oxooxazolidin-5-yl]methyl)acetamide]",216 to 220 °C,–
"CC(=O)NC[C@H]1CN(c2ccc(C(=O)c3cnc4sccn34)cc2)C(=O)O1 [Example 10, N-([(5S)-N-(4[imidazo[2,1-b]thiazol-5-ylcarbonyl]phenyl)-2-oxooxazolidin-5-yl]methyl)acetamide]",–,MIC (Bacillus subtilis): 0.125 µg/mL; MIC [1]: 0.03 µg/mL; MIC (Enterococcus faecalis): 0.25 µg/mL; MIC [2]: 0.13 µg/mL; MIC [3]: 0.5 µg/mL; MIC [4]: 0.13 µg/mL; MIC [5]: 0.06 µg/mL; MIC [6]: 0.13 µg/mL
"CC(=O)NC[C@H]1CN(c2ccc(C(=O)c3cnc4ccc(Cl)nn34)cc2)C(=O)O1 [Example 44, N-([(5S)-N-(4-[6-chloroimidazo[1,2-b]pyridazin-3-ylcarbonyl]phenyl)-2-oxooxazolidin-5-yl]methyl)acetamide]",194 to 196 °C,–
"COC(=O)c1ccc2ncc(C(=O)c3ccc(N4C[C@H](CNC(C)=O)OC4=O)cc3)n2c1 [Example 24, N-([(5S)-N-(4-[6-methoxycarbonylimidazo[1,2-a]pyridin-3-ylcarbonyl]phenyl)-2-oxooxazolidin-5-yl]methyl)acetamide]",231 to 233 °C,–
"CC(=O)NC[C@H]1CN(c2ccc(C(=O)c3cnc4nc(C)cc(C)n34)cc2)C(=O)O1 [Example 7, N-([(5S)-N-(4-[5,7-dimethylimidazo[1,2-a]pyrimidin-3-ylcarbonyl]phenyl)-2-oxooxazolidin-5-yl]methyl)acetamide]",253 to 254 °C,–
"CC(=O)NC[C@H]1CN(c2ccc(C(=O)c3ccc4ccc(C)cn34)cc2)C(=O)O1 [Example 2, N-([(5S)-N-(4-[6-methylindolizin-3-ylcarbonyl]phenyl)-2-oxooxazolidin-5-yl]methyl)acetamide]",237 to 239 °C,–
"CC(=O)NC[C@H]1CN(c2ccc(C(=O)c3cnc4c(Br)cc(C)cn34)cc2)C(=O)O1 [Example 19, N-([(5S)-N-(4-[8-bromo-6-methylimidazo[1,2-a]pyridin-3-ylcarbonyl]phenyl)2-oxooxazolidin-5-yl]methyl)acetamide]",221 to 223 °C,–
"CC(=O)NC[C@H]1CN(c2ccc(C(=O)c3cnc4c(OCc5ccccc5)cccn34)cc2)C(=O)O1 [Example 20, N-([(5S)-N-(4-[8-benzyloxyimidazo[1,2-a]pyridin-3-ylcarbonyl]phenyl)-2-oxooxazolidin-5-yl]methyl)acetamide]",193 to 195 °C,–
"CC(=O)NC[C@H]1CN(c2ccc(C(=O)c3ccc[nH]3)cc2)C(=O)O1 [Example 47, N-([(5S)-N-(4-[pyrrol-2-ylcarbonyl]phenyl)-2-oxooxazolidin-5-yl]methyl)acetamide]",202 to 205 °C,–
